The source of these data is US20170114049A1, “2,5-DISUBSTITUTED CYCLOPENTANE CARBOXYLIC ACIDS FOR THE TREATMENT OF RESPIRATORY TRACT DISEASES” (BAYER PHARMA AKTIENGESELLSCHAFT, priority 2014, published 2017).

The structures appear in SMILES notation. Like-named read-outs stand apart in the source and are kept apart here.

Common to all, as to type: biochemical
One experiment deals with T1, MMP-16 (Homo sapiens, UniProt P51512).
T1 construct: purchased R&D Systems 1785-MP
As to the kind of experiment: In vitro MMP-16 inhibition test. An excerpt: (§1) The MMP-mediated amidolytic cleavage of a suitable peptide substrate leads to an increase in fluorescent light here too. The signal intensity of the fluorescent light is directly proportional to the enzyme activity. The active concentration of a test compound at which half the enzyme is inhibited (50% signal intensity of the fluorescent light) is reported as the […].
Recombinant MMP-16 (from R&D Systems, 1785-MP) is enzymatically activated in accordance with the manufacturer's instructions using recombinant furin (from R&D Systems, 1503-SE). 1 μl of the test compound to be analysed (as a solution in DMSO, suitable concentrations e.g. 1 nM to 30 μM) is pipetted into 24 μl of activated enzyme (final concentration e.g. 1 nM) in reaction buffer (50 mM Tris/HCl pH 7.5, 10 mM CaCl2, 150 mM NaCl, 0.05% Brij®-35) in a white 384-hole microtiter plate (MTP). The enzymatic reaction is started by adding the intramolecularly quenched Mca-Lys-Pro-Leu-Gly-Leu-Dpa(Dnp)-Ala-Arg-NH2 substrate (final concentration, for example, 5 μM; R&D Systems, ES-010), so as to result in a total test volume of 50 μl. The course of the MMP-16 reaction is measured by measuring the fluorescence intensity (excitation 320 nm, emission 410 nm) over a suitable period of time (for example over 120 min at a temperature of 32° C.).

For a further experiment, the target named is T2, MMP-10 (Homo sapiens, UniProt P09238).
T2 construct: purchased R&D Systems 910-MP
T2 sequence (P09238 99-476): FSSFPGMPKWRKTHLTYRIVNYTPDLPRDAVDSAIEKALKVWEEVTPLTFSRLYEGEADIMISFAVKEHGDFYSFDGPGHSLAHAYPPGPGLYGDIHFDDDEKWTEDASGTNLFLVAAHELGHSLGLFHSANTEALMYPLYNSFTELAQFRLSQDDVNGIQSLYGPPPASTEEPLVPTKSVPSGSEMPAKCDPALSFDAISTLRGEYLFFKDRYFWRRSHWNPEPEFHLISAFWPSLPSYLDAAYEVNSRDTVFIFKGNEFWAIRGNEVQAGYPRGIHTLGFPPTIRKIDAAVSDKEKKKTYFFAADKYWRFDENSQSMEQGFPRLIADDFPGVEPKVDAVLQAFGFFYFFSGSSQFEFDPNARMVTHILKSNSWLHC
Nature of the experiment: In vitro MMP-10 inhibition test.
Description: as §1
Recombinant MMP-10 (from R&D Systems, 910-MP) is chemically activated in accordance with the manufacturer's instructions using APMA. 1 μl of the test compound to be analysed (as a solution in DMSO, suitable concentrations, for example, 1 nM to 30 μM) is pipetted into 24 μl of activated enzyme (final concentration, for example, 2 nM) in reaction buffer (50 mM Tris/HCl pH 7.5, 10 mM CaCl2, 150 mM NaCl, 0.05% Brij®-35) in a white 384-hole microtiter plate (MTP). The enzymatic reaction is started by adding the intramolecularly quenched Mca-Arg-Pro-Lys-Pro-Val-Glu-Nval-Trp-Arg-Lys(Dnp)-NH2 substrate (final concentration, for example, 10 μM; R&D Systems, ES-002), so as to result in a total test volume of 50 μl. The course of the MMP-10 reaction is measured by measuring the fluorescence intensity (excitation 320 nm, emission 410 nm) over a suitable period of time (for example over 120 min at a temperature of 32° C.).

The target of a further experiment is T3, mouse MMP-7 (Mus musculus, UniProt Q10738).
T3 construct: purchased R&D Systems 2967-MP
T3 sequence (Q10738 95-264): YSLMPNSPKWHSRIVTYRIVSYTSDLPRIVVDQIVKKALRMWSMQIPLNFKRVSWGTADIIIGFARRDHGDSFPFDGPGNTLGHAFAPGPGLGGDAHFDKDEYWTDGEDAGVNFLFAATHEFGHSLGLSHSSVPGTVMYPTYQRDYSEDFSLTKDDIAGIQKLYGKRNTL
Nature of the experiment: In vitro mouse MMP-7 inhibition test.
Description: as §1
Recombinant mouse MMP-7 (from R&D Systems, 2967-MP) is chemically activated in accordance with the manufacturer's instructions using APMA. 1 μl of the test compound to be analysed (as a solution in DMSO, suitable concentrations, for example, 1 nM to 30 μM) is pipetted into 24 μl of activated enzyme (final concentration, for example, 0.5 nM) in reaction buffer (50 mM Tris/HCl pH 7.5, 10 mM CaCl2, 150 mM NaCl, 0.05% Brij®-35) in a white 384-hole microtiter plate (MTP). The enzymatic reaction is started by adding the intramolecularly quenched Mca-Lys-Pro-Leu-Gly-Leu-Dpa(Dnp)-Ala-Arg-NH2 substrate (final concentration, for example, 5 μM; R&D Systems, ES-010), so as to result in a total test volume of 50 μl. The course of the MMP-7 reaction is measured by measuring the fluorescence intensity (excitation 320 nm, emission 410 nm) over a suitable period of time (for example over 120 min at a temperature of 32° C.).

Experiment [1] addresses T4, human macrophage elastase (HME/hMMP-12) (Homo sapiens, UniProt P39900).
T4 construct: 0.5 nM HME; purchased R&D Systems 917-MP
Nature of the experiment: In vitro HME inhibition test (standard or high-sensitivity). How it is done: The potency of the compounds according to the invention with respect to HME (MMP-12) is determined in an in vitro inhibition test. The HME-mediated amidolytic cleavage of a suitable peptide substrate leads to an increase in fluorescent light therein. The signal intensity of the fluorescent light is directly proportional to the enzyme activity. The active concentration of a test compound at which half the enzyme is inhibited (50% signal intensity of the fluorescent light) is reported as the IC50 value.
In a 384 hole microtiter plate, in a total test volume of 41 μl, the test buffer (0.1 M HEPES pH 7.4, 0.15 M NaCl, 0.03 M CaCl2, 0.004 mM ZnCl2, 0.02 M EDTA, 0.005% Brij®), the enzyme (0.5 nM HME; from R&D Systems, 917-MP, autocatalytic activation according to the manufacturer's instructions) and the intramolecularly quenched substrate [5 μM Mca-Pro-Leu-Gly-Leu-Glu-Glu-Ala-Dap(Dnp)-NH2; Bachem, M-2670] are incubated in the absence and presence of the test substance (as a solution in DMSO) at 37° C. for two hours. The fluorescence intensity of the test mixtures is measured (excitation […], emission 393 nm). The IC50 values are ascertained by plotting the fluorescent light intensity against the active ingredient concentration.
In this case, an enzyme concentration ten times lower is used (final concentration, for example, 0.05 nM) in order to achieve an elevated test sensitivity. The incubation period chosen for the test is correspondingly longer (for example 16 hours).

T4 sequence (P39900 106-470): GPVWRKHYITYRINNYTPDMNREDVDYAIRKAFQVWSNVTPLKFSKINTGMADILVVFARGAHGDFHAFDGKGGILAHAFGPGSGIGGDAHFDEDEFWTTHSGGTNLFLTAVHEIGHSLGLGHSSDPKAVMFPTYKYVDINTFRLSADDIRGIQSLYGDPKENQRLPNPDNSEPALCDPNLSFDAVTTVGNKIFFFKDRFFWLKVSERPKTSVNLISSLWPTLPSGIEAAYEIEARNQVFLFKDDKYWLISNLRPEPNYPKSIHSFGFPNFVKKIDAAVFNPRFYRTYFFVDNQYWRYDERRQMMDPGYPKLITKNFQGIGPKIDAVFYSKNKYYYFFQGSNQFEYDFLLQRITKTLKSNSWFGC
T1 sequence (P51512 120-607): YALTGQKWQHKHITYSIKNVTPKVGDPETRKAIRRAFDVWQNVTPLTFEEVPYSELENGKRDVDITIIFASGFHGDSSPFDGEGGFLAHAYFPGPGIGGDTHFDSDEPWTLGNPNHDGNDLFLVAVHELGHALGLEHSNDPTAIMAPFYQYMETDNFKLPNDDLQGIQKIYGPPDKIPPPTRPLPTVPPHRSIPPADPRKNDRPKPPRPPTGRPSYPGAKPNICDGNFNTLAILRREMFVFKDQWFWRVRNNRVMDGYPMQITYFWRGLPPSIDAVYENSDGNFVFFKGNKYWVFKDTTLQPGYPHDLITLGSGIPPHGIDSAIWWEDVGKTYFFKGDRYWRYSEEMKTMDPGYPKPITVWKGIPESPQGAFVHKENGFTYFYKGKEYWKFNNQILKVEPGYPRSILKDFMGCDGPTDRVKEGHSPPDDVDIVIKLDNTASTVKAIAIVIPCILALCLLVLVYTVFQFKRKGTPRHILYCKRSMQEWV

Turning to `Cc1ccc2nnn(C[C@@H]3CC[C@H](C(=O)c4ccc(OCCC5CCOCC5)cc4)[C@H]3C(=O)O)c(=O)c2c1` (racemic) [Example 19, (+/−)-(1RS,2SR,5RS)-2-[(6-Methyl-4-oxo-1,2,3-benzotriazin-3(4H)-yl)methyl]-5-{4-[2-(letrahydro-2H-pyran-4-yl)ethoxy]benzoyl}cyclopentanecarboxylic acid], the IC50 against MMP-16 was found to be 2500 nM; on MMP-10, 58 nM; against mouse MMP-7, 630 nM; in experiment [1] (absence of serum albumin (BSA), read-out: HME IC50 (−BSA)) it was 0.12 nM; in experiment [1] (standard or high-sensitivity HME inhibition test, read-out: HME/hMMP-12 IC50), 0.12 nM.
